Source: patent US9834542B2, “LXR modulators” (BRISTOL-MYERS SQUIBB COMPANY, priority 2013, dated 2017)

Molecular target: T1, LXRβ (Homo sapiens, UniProt P55055)
T1 construct: Co-transfection expression plasmids, comprising full-length LXRα (pCMX-h LXRα[…] or LXRβ (pCMX-hLXRβ)); expressed in transfected cells; host or cells: CV-1 African Green Monkey Kidney Cells
T1 sequence (P55055 1-460): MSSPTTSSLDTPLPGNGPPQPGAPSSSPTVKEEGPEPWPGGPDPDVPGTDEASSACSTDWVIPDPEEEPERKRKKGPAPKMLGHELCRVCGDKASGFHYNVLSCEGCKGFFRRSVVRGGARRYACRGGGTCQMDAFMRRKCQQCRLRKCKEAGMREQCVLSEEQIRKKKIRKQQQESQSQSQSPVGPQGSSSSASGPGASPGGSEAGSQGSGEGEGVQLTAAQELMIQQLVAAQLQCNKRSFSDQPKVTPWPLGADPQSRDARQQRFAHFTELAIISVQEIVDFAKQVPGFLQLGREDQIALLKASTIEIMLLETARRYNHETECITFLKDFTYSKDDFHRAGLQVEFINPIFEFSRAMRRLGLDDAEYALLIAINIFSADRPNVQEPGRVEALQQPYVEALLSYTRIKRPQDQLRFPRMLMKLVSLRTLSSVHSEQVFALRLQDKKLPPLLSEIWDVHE
T1 sequence (P19793 1-462 partner): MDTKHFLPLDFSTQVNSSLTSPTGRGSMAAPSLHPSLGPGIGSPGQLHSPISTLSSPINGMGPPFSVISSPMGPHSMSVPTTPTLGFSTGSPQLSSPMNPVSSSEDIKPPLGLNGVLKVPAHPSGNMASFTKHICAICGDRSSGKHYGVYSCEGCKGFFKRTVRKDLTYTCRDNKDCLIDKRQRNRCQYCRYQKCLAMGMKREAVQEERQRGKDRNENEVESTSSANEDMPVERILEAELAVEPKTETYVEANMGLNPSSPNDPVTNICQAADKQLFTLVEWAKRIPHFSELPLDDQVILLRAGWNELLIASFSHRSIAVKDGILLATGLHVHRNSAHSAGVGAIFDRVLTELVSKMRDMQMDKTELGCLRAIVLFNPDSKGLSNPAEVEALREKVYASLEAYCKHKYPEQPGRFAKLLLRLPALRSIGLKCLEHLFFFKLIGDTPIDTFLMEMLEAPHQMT
Experiment: Co-transfection assay (LXRE luciferase reporter), LXRβ
Assay type: cell-based
Set-up: % Efficacy: concentration or dose not given beside the values
Conditions: for EC50: CV-1 cells transfected with pCMX-hLXRβ and LXREx1-Tk-Luciferase, 20 hours incubation; for Emax: read-out: % Efficacy
Description: To measure the ability of compounds to activate or inhibit the transcriptional activity of LXR in a cell based assay, the co-transfection assay was used. It has been shown that LXR functions as a heterodimer with RXR. For the co-transfection assay, expression plasmids for LXRα and LXRβ are introduced separately via transient transfection into mammalian cells along with a luciferase reporter plasmid that contains one copy of a DNA sequence that is bound by LXR-RXR heterodimers (LXRE; Willy, P. et. al. 1995). LXRs heterodimerize with the endogenous RXR. Treatment of transfected cells with an LXR agonist increases the transcriptional activity of LXR, which is measured by an increase in luciferase activity.
CV-1 African Green Monkey Kidney Cells
Co-transfection expression plasmids, comprising full-length LXRα (pCMX-h LXRα[…] or LXRβ (pCMX-hLXRβ), reporter plasmid (LXREx1-Tk-Luciferase), and control (pCMX-Galactosidase expression vector) (Willey et al. Genes & Development 9 1033-1045 (1995)).
CV-1 cells were prepared 24 hours prior to the experiment by plating them into T-175 flasks or 500 cm^2 dishes in order to achieve 70-80% confluency on the day of the transfection. The number of cells to be transfected was determined by the number of plates to be screened. Each well of a 384 well plate requires 1.5×10^4 cells. DNA Transfection Reagent was prepared by mixing the required plasmid DNAs with a cationic lipid transfection reagent Transit 2020 (Mirus Bio) for CV1 by following the instructions provided with the reagents. Optimal DNA amounts were determined empirically per cell line and size of vessel to be transfected. For each T175 cm^2 flask a total of 59 ug for CV1 of DNA, 133 uL Transit2020 and 4.5 mL DMEM for CV1 was mixed and added. Cells were then incubated at least 5 hours at 37° C. to prepare screening cells.
Luciferase assay reagent (*Steady-Glo Luciferase Assay System by Promega, CAT#E2550) was prepared by combining before use:
Assay plates were prepared by dispensing 5 μL of compound per well of a 384 well plate to achieve final compound concentration of 10 μM and no more than 0.5% DMSO. Media was removed from the screening cells, the cells trypsinized, harvested cells by centrifugation, counted, and plated at a density of approximately 1.5×10^4 cells in the 384 well assay plate prepared above in a volume of about 95 uL. Assay plates containing both compounds and screening cells (100 μL in total volume) were incubated for 20 hours at 37° C.
After incubation with compounds, media was removed from the cells and luciferase assay reagent (50 μL/well) added. After ˜2 minutes at ambient temperature, the assay plates were read on a luminometer (PE Biosystems Northstar reader with on-board injectors, or Envision(Perkin Elmer) or equivalent).
The LXR/LXRE co-transfection assay can be used to establish the EC50/IC50 values for potency and percent activity or inhibition for efficacy. Efficacy defines the activity of a compound relative to a high control 1-(2,4-difluorobenzyl)-2-oxo-6-(4-phenoxyphenyl)-4-(trifluoromethyl)-1,2-dihydropyridine-3-carbonitrileor a low control (DMSO/vehicle). The dose response curves are generated from a 11 point curve with concentrations differing by ½ LOG units. Each point represents the average of 2 wells of data from duplicate 384 well plate.
The data from this assay is fitted to the following equation, from which the EC50 value may be solved: Y=Bottom+(Top−Bottom)/(1+10^((logEC50-X)*HillSlope)).
The EC50/IC50 is therefore defined as the concentration at which an agonist or antagonist elicits a response that is halfway between the Top (maximum) and Bottom (baseline) values. The EC50/IC50 values represented are the averages of at least 2 and normally 3 independent experiments. […]

[1] = LXRβ co-transfection, relative to high control 1-(2,4-difluorobenzyl)-2-oxo-6-(4-phenoxyphenyl)-4-(trifluoromethyl)-1,2-dihydropyridine-3-carbonitrile

## CCCc1nc(-c2cc(-c3cc(F)c(CO)c(S(C)(=O)=O)c3)ccc2-n2cc(C(F)(F)F)nc2C)c(-c2ccc(OC(F)(F)F)cc2)o1 [Example 557, (3-fluoro-4′-(2-methyl-4-(trifluoromethyl)-1H-imidazol-1-yl)-5-(methylsulfonyl)-3′-(2-propyl-5-(4-(trifluoromethoxy)phenyl)oxazol-4-yl)-[1,1′-biphenyl]-4-yl)methanol]
  EC50: 14 nM
[1]
  Emax: 82%

## Cc1nc(-c2cc(-c3cccc(S(C)(=O)=O)c3)ccc2-n2cc(C(F)(F)F)nc2C)c(-c2ccc(OC(F)F)nc2)o1 [Example 384, 5-(6-(difluoromethoxy)pyridin-3-yl)-2-methyl-4-(4-(2-methyl-4-(trifluoromethyl)-1H-imidazol-1-yl)-3′-(methylsulfonyl)biphenyl-3-yl)oxazole]
  EC50: 12 nM
[1]
  Emax: 72%

## Cc1nc(-c2cc(-c3cc(F)c(CO)c(S(C)(=O)=O)c3)ccc2-n2cc(C(F)(F)F)nc2C)c(-c2cccnc2C2CC2)o1 [Example 391]
  EC50: 207 nM
[1]
  Emax: 51%

## Cc1nc(C(F)(F)F)cn1-c1ccc(-c2cccc(S(C)(=O)=O)c2)cc1-c1nc(C(F)(F)F)cn1-c1ccc2c(c1)OC(F)(F)O2 [Example 640, 1-(2,2-difluorobenzo[d][1,3]dioxol-5-yl)-2-(4-(2-methyl-4-(trifluoromethyl)-1H-imidazol-1-yl)-3′-(methylsulfonyl)biphenyl-3-yl)-4-(trifluoromethyl)-1H-imidazole]
  EC50: 218 nM
[1]
  Emax: 61%

## Cc1cc(-c2oc(C)nc2-c2cc(-c3cc(F)c(CO)c(S(C)(=O)=O)c3)ccc2-n2cc(C(F)(F)F)nc2C)cc(Cl)n1 [Example 432, (3′-(5-(2-chloro-6-methylpyridin-4-yl)-2-methyloxazol-4-yl)-3-fluoro-4′-(2-methyl-4-(trifluoromethyl)-1H-imidazol-1-yl)-5-(methylsulfonyl)biphenyl-4-yl)methanol]
  EC50: 45 nM
[1]
  % Efficacy: 83%

## Cc1nc(-c2ccc(Cl)cc2Cl)c(-c2cc(-c3cc(F)c(CO)c(S(C)(=O)=O)c3)ccc2-n2cc(C(F)(F)F)nc2C)o1 [Example 609, (3′-(4-(2,4-dichlorophenyl)-2-methyloxazol-5-yl)-3-fluoro-4′-(2-methyl-4-(trifluoromethyl)-1H-imidazol-1-yl)-5-(methylsulfonyl)-[1,1′-biphenyl]-4-yl)methanol]
  EC50: 36 nM
[1]
  Emax: 91%

## Cc1nc(C(F)(F)F)cn1-c1c(F)cc(-c2cccc(S(C)(=O)=O)c2)cc1-n1nncc1-c1ccc(Cl)cc1Cl [Example 8, 5-(2,4-dichlorophenyl)-1-{5-fluoro-3′-(methylsulfonyl)-4-[2-methyl-4-(trifluoromethyl)-1H-imidazol-1-yl]biphenyl-3-yl}-1H-1,2,3-triazole]
  EC50: 143 nM
[1]
  Emax: 91%

## Cc1nc(C(F)(F)F)cn1-c1ccc(-c2cccc(S(C)(=O)=O)c2)cc1-n1nncc1-c1ccc(Cl)c(C(F)(F)F)c1 [Example 64, 5-[4-chloro-3-(trifluoromethyl)phenyl]-1-{3′-(methylsulfonyl)-4-[2-methyl-4-(trifluoromethyl)-1H-imidazol-1-yl]biphenyl-3-yl}-1H-1,2,3-triazole]
  EC50: 289 nM
[1]
  Emax: 86%

## Cc1nc(C(F)(F)F)cn1-c1ccc(-c2cc(Cl)c(CO)c(S(C)(=O)=O)c2)cc1-n1nncc1Cc1cccc(Cl)c1 [Example 117, (3-chloro-3′-{5-[(3-chlorophenyl)methyl]-1H-1,2,3-triazol-1-yl}-5-(methylsulfonyl)-4′-[2-methyl-4-(trifluoromethyl)-1H-imidazol-1-yl]biphenyl-4-yl)methanol]
  EC50: 1020 nM
[1]
  Emax: 76%

## Cc1nc(C(F)(F)F)cn1-c1ccc(-c2cccc(S(C)(=O)=O)c2)cc1-c1ccnn1-c1ccc2c(c1)OC(F)(F)O2 [Example 293, 1-(2,2-difluorobenzo[d][1,3]dioxol-5-yl)-5-(4-(2-methyl-4-(trifluoromethyl)-1H-imidazol-1-yl)-3′-(methylsulfonyl)biphenyl-3-yl)-1H-pyrazole]
  EC50: 114 nM
[1]
  Emax: 97%
